{"source": "patent US8962558B2", "about": "“Methods for reducing GnRH-positive tumor cell proliferation using the GnRH antagonist IN3” (priority 1997, dated 2015)", "key": {"[1]": {"tested_on": "human glioblastoma cell lines U-87MG or U-373MG, Kaposi sarcoma cell lines KSY-1 or KS-SLK, malignant melanoma cell line MV3 or BLM, medulloblastoma cell line …", "assay": "Proliferation assay on cell cultures (Example 3)", "type": "cell-based", "conditions": "cell lines of Example 3 treated with the substance"}, "Glioblastoma multiforme": {"tested_on": "Glioblastoma multiforme", "assay": "Phase II study with ZOLADEX (Example 7)", "type": "in vivo, human", "experimental": "Patients with histologically confirmed Glioblastoma multiforme following a first operation were treated (also randomized controlled) with ZOLADEX® in the manner described by Jonat et al., 1995, European J. Cancer, 137-142. Following radiotherapy, the patients are assigned to two different groups. One group received treatment, for example with ZOLADEX® and one group without ZOLADEX® (or with Cetrorelix® and without Cetrorelix®, or with ANTIDE® and without ANTIDE®, or with […]® or without […]® etc.). The resulting clinical effects are similar to metastasized […] mammary carcinoma. The percentage of patients showing an actual significant therapy effect is evaluated according to the criteria of tumor volume, recidivation-free survival, overall survival following initial application of the compound, and Karnofsky and Spitzer indices in a clinical neurological examination and under consideration of the other examination criteria (Sposto, R., et al., 1989, J. Neurooncology, 7, 165-177, and Kirby, S., et al., 1995, J. Natl. Cancer Institute, 87, 1884-1888, 1995)."}, "BLM melanoma cells [2]": {"tested_on": "BLM melanoma cells", "assay": "Matrigel gel assay (invasion)", "type": "cell-based, human", "conditions": "10^−6 M; 4, 8 and 12 days", "experimental": "This dose has been also used in previous papers analyzing the interaction between GnRH agonists and stimulatory growth factors in prostate cancer cells. Subconfluent BLM cells were collected by trypsinization, resuspended in culture medium and seeded in 20 μL (150,000 cells/drop) on the lid of a culture dish. The lid was then placed on a dish filled with 2 mL of culture medium and incubated at 37° C. for 48 h. Matrigel solution (80 μL, 2.7 mg/mL) was pipetted onto the bottom of wells of a 24-well culture dish, and left to set at 37° C. Cell aggregates were transferred over the cushion and then overlaid with additional 20 μL of Matrigel. The aggregates into Matrigel were covered with 400 μL culture medium in the absence or in the presence of LHRH-A (10^−6 M). The aggregates were then observed daily under a light microscope and at the end of the incubation time phase-contrast pictures of the aggregates were taken."}, "BLM melanoma cells [3]": {"tested_on": "BLM melanoma cells", "assay": "Chemomigration assay (Boyden's chamber)", "type": "cell-based, human", "conditions": "10^−6 M pretreatment for 5 days, FBS 5%", "experimental": "The assay was performed using a 48-well Boyden's chamber, according to the manufacturer's instruction (Neuroprobe, Cabin John, Md.). Subconfluent BLM cells, grown in culture medium, were pretreated for 5 days with LHRH-A (10^−6 M) and harvested at the end of the treatment. BLM cell suspensions (10^5 cells/50 μL), resuspended in culture medium deprived of FBS, were placed in the open-bottom wells of the upper compartment of the chamber. Each pair of wells were separated by polyvinylpyrrolidone-free polycarbonate porous membrane (8-μm pores) pre-coated with gelatin (0.2 mg/mL in PBS). The chemoattractant (FBS 5%) was placed in the lower compartment of the chamber. The chamber was then kept for 4 h in the cell culture incubator. After that, the cells migrated through the pores, and adhered to the underside of the membrane, were fixed, stained (Diff-Quick kit, DADE, Dudingen, CH) and mounted onto glass slides. For quantitative analysis, six random objective fields of stained cells were counted for each well (8 wells/experimental group) and the mean number of migrating cells/mm^2 was calculated. The data obtained from four independent experiments were compared by ANOVA and Dunnett's test."}}}
{"smiles": "CC(C)C[C@H](NC(=O)[C@@H](COC(C)(C)C)NC(=O)[C@H](Cc1ccc(O)cc1)NC(=O)[C@H](CO)NC(=O)[C@H](Cc1c[nH]c2ccccc12)NC(=O)[C@H](Cc1cnc[nH]1)NC(=O)[C@@H]1CCC(=O)N1)C(=O)N[C@@H](CCCNC(=N)N)C(=O)N1CCC[C@H]1C(=O)NNC(N)=O", "note": "[ZOLADEX®, D-Ser(tBu)^6Aza-Gly-LHRH]", "values": [{"measurement": "anti-proliferative effects in tumor cells", "setting": "[1]", "result": "Significant anti-proliferative effects"}, {"measurement": "reduction in tumor volume vs untreated control group", "setting": "Glioblastoma multiforme; MRT and/or CAT scans", "result": "significantly higher reduction in tumor volume"}, {"measurement": "overall survival following initial application vs untreated control group", "setting": "Glioblastoma multiforme; in vivo", "result": "significantly longer overall survival"}, {"measurement": "recidivation-free survival vs untreated control group", "setting": "Glioblastoma multiforme; in vivo", "result": "significantly longer recidivation-free survival"}, {"measurement": "migration of the cells through the Matrigel", "setting": "BLM melanoma cells [2]", "result": "completely abrogates"}, {"measurement": "number of cells that migrate in response to the chemoattractant", "setting": "BLM melanoma cells [3]", "result": "significantly decreased"}]}
